From patent US8232407B2, “Nitrogenous heterocyclic compounds with insecticidal activity, and the preparation and use thereof” (East China University of Science and Technology, priority 2008, dated 2012)

Key:
Assay type in all cases: in vivo
Conditions in all cases: in vivo
[1] = system: Plutella xylostella; assay: Insecticidal activities to diamondback moth, feeding dipped leaves
Method: (§1) Mortality (%)=(the number of the survival aphis in control group−the number of the survival aphis in the treatment group)/the number of the survival aphis in control group×100%
(4): Insecticidal Activities to Diamondback Moth
Diamondback moth (Plutella xylostella) was tested by the way of feeding dippedleaves. Fresh cabbage leaves were immersed in above mentioned solution for 3 seconds, dried at room temperature, and fed to the tested insects. Each treatment was tested with 10 insects and repeated for 3 tumblers (3 times), while water was used as control. The number of killed insects was counted after 24 hours to calculate the mortality according to the above mentioned formula.

[2] = system: Aphis craccivoral; assay: Insecticidal activities to aphids, immersion method
Method: (1): Insecticidal Activities to Aphids
Aphis (Aphis craccivoral), which belongs to Homoptera and has a piercing-sucking mouthpart, is a common insect for agricultural plant. Aphis craccivoral was tested by immersion method.
Procedure: exactly weighed various samples were independently added to N,N-dimethylformamide to form 10 g/L stock solutions. The stock solutions were diluted with 0.2 mL/L aqueous Triton X-100 solution to a concentration of 500 ppm. After stably sucking on bean sprout, the wingless adult aphis together with bean sprout were dipped into 500 ppm dilution, taken out after 5 seconds, and the excess dilution was sucked off with bibulous paper. The treated wingless adult aphis was incubated in clean vessel at a constant temperature of 23° C. Each concentration was repeated for 3 times and the control group was treated with 0.2mL/L aqueous Triton X-100 solution. The number of killed aphis was counted after 24 hours and the mortality was to calculated according to the following formula:
as §1

[3] = system: Pseudaletia separate Walker; assay: Insecticidal activities to armyworm, leaf dipping and feeding
Method: as §1
(3): Insecticidal Activities to Armyworm
Armyworm (Pseudaletia separate Walker) was tested by the way of leaf dipping and feeding. The test compound was exactly formulated with acetone into solutions having concentrations of 500, 250, 100, 50, 25, 12.5, 6.25, 3.13 and 1.57 ppm, respectively. Aqueous acetone solution was used as control. Fresh maize leaves were immersed in the solution for 3 seconds, dried at room temperature, and fed to the tested insects. Each treatment was tested with 10 insects and repeated for 3 tumblers (3 times). The number of killed insects was counted after 24 hours to calculate the mortality according to the above mentioned formula.

[4] = system: Nilaparvata lugens; assay: Insecticidal activities to plant hopper, spraying method
Method: as §1
(2): Insecticidal Activities to Plant hopper
Plant hopper (Nilaparvata lugens), which belongs to Homoptera and has a piercing-sucking mouthpart, is a common insect for agricultural plant. Nilaparvata lugens was tested by spraying method.
Procedure: the test compound was exactly formulated with acetone to form solutions having concentrations of 500, 250, 100, 50, 25, 12.5, 6.25, 3.13, 1.57 and 0.79 ppm, respectively. Aqueous acetone solution was used as control. Each treatment was repeated for 3 tumblers (3 times). Two ml of solution was sprayed uniformly to each tumbler with a mini manual sprayer. 10 insects were introduced to every basin 6 hours before spraying. Three series of experiments were conducted. The number of killed insects was counted after 24 hours to calculate the mortality according to the above mentioned formula.

Structure (SMILES)	Plutella xylostella Mortality (%) 500 ppm [1] [%]	Aphis craccivoral Mortality (%) 500 ppm [2] [%]	Pseudaletia separate Walker Mortality (%) 500 ppm [3] [%]	Nilaparvata lugens Mortality (%) 500 ppm [4] [%]
CC(=C(C1=NCCN1C(C)c1ccc(Cl)nc1)[N+](=O)[O-])c1ccc([N+](=O)[O-])o1 (racemic) [Compound 135]	56	56	45	63
CCN(Cc1ccc(Cl)nc1)C(=NC)C(=C(C)c1ccc(Cl)o1)[N+](=O)[O-] [Compound 198]	–	86	–	100
CCN=C(C(=Cc1ccc(Cl)o1)[N+](=O)[O-])N(CC)Cc1ccc(Cl)nc1 [Compound 192]	–	97	–	100
CN=C(C(=Cc1ccc([N+](=O)[O-])o1)[N+](=O)[O-])N(C)Cc1cnc(Cl)s1 [Compound 217]	–	77	–	43
CN=C(C(=Cc1ccc([N+](=O)[O-])o1)[N+](=O)[O-])N(C)Cc1ccc(Cl)nc1 [Compound 163]	–	100	–	100
CN=C(C(=Cc1ccsc1)[N+](=O)[O-])N(C)Cc1ccc(Cl)nc1 [Compound 167]	–	100	–	100
CN=C(C(=Cc1ccc(Br)o1)[N+](=O)[O-])N(C)Cc1ccc(Cl)nc1 [Compound 235]	–	91	–	86
CCN(C(=NC)C(=Cc1ccco1)[N+](=O)[O-])C(C)c1ccc(Cl)nc1 (stereo not shown) [Compound 205]	–	56	–	87
CCN(Cc1ccc(Cl)nc1)C(=NC)C(=Cc1ccc(Br)o1)[N+](=O)[O-] [Compound 183]	–	100	–	100
CCN=C(C(=Cc1ccc(Cl)o1)[N+](=O)[O-])N(C)Cc1ccc(Cl)nc1 [Compound 173]	–	87	–	85
CCN(Cc1ccc(Cl)nc1)C(=NC)C(=C(C)c1cccs1)[N+](=O)[O-] [Compound 200]	–	100	–	100
CCN(C(=NC)C(=Cc1ccoc1)[N+](=O)[O-])C(C)c1ccc(Cl)nc1 (stereo not shown) [Compound 206]	–	65	–	44
CN=C(C(=Cc1ccco1)[N+](=O)[O-])N(C)Cc1ccc(Cl)nc1 [Compound 161]	–	100	–	65
CCN(Cc1ccc(Cl)nc1)C(=NC)C(=C(C)c1ccc(Br)o1)[N+](=O)[O-] [Compound 199]	–	84	–	100
CN=C(C(=Cc1ccc(Cl)s1)[N+](=O)[O-])N(C)Cc1ccc(Cl)nc1 [Compound 169]	–	76	–	67
CCN(Cc1cnc(Cl)s1)C(=NC)C(=Cc1ccc([N+](=O)[O-])s1)[N+](=O)[O-] [Compound 229]	–	65	–	75
CCN(Cc1ccc(Cl)nc1)C(=NC)C(=Cc1ccc(Cl)s1)[N+](=O)[O-] [Compound 187]	–	100	–	100
CN=C(C(=Cc1ccc(Br)o1)[N+](=O)[O-])N(C)Cc1cnc(Cl)s1 [Compound 219]	–	87	–	87
CCN(C(=NC)C(=Cc1ccc(Br)o1)[N+](=O)[O-])C(C)c1ccc(Cl)nc1 (stereo not shown) [Compound 209]	–	88	–	100
CN=C(NCc1ccc(Cl)nc1)C(=Cc1ccc([N+](=O)[O-])s1)[N+](=O)[O-] [Compound 158]	–	43	–	43
CN=C(C(=Cc1ccc[nH]1)[N+](=O)[O-])N(C)Cc1cnc(Cl)s1 [Compound 224]	–	32	–	52
CN=C(C(=Cc1ccc[nH]1)[N+](=O)[O-])N(C)Cc1ccc(Cl)nc1 [Compound 170]	–	89	–	34

Structure (SMILES)	Plutella xylostella Mortality (%) 500 ppm [1] [%]	Aphis craccivoral Mortality (%) 500 ppm [2] [%]	Pseudaletia separate Walker Mortality (%) 500 ppm [3] [%]	Nilaparvata lugens Mortality (%) 500 ppm [4] [%]
CN=C(C(=Cc1cccs1)[N+](=O)[O-])N(C)Cc1ccc(Cl)nc1 [Compound 236]	–	82	–	79
CN=C(C(=Cc1ccc(Cl)o1)[N+](=O)[O-])N(C)Cc1cnc(Cl)s1 [Compound 218]	–	88	–	86
CN=C(NCc1ccc(Cl)nc1)C(=Cc1ccsc1)[N+](=O)[O-] [Compound 157]	–	100	–	97
CCN(C(=NC)C(=Cc1ccc(Cl)o1)[N+](=O)[O-])C(C)c1ccc(Cl)nc1 (stereo not shown) [Compound 208]	–	42	–	100
CN=C(C(=C(C)c1ccc[nH]1)[N+](=O)[O-])N(C)C(C)c1ccc(Cl)nc1 (stereo not shown) [Compound 216]	–	100	–	100
CCN(Cc1cnc(Cl)s1)C(=NC)C(=Cc1ccco1)[N+](=O)[O-] [Compound 225]	–	90	–	78
CCN(C(=NC)C(=Cc1cccs1)[N+](=O)[O-])C(C)c1ccc(Cl)nc1 (stereo not shown) [Compound 210]	–	100	–	100
CCN(Cc1ccc(Cl)nc1)C(=NC)C(=Cc1ccc([N+](=O)[O-])s1)[N+](=O)[O-] [Compound 186]	–	100	–	100
CN=C(C(=C(C)c1ccc([N+](=O)[O-])o1)[N+](=O)[O-])N(C)C(C)c1ccc(Cl)nc1 (stereo not shown) [Compound 212]	–	96	–	100
CCN=C(C(=Cc1ccc(Br)o1)[N+](=O)[O-])N(C)Cc1ccc(Cl)nc1 [Compound 174]	–	100	–	100
CN=C(C(=Cc1ccc(Cl)o1)[N+](=O)[O-])N(C)Cc1ccc(Cl)nc1 [Compound 164]	–	100	–	100
CN=C(C(=C(C)c1ccsc1)[N+](=O)[O-])N(C)C(C)c1ccc(Cl)nc1 (stereo not shown) [Compound 213]	–	89	–	68
CCN=C(C(=Cc1ccc[nH]1)[N+](=O)[O-])N(C)Cc1ccc(Cl)nc1 [Compound 178]	–	100	–	100
CCN(Cc1ccc(Cl)nc1)C(=NC)C(=Cc1cccs1)[N+](=O)[O-] [Compound 184]	–	98	–	100
CCN=C(C(=Cc1ccc(Cl)s1)[N+](=O)[O-])N(C)Cc1ccc(Cl)nc1 [Compound 177]	–	87	–	100
CN=C(C(=Cc1ccc([N+](=O)[O-])s1)[N+](=O)[O-])N(C)Cc1cnc(Cl)s1 [Compound 222]	–	46	–	67
CN=C(C(=Cc1ccc(Br)o1)[N+](=O)[O-])N(C)Cc1ccc(Cl)nc1 [Compound 165]	–	100	–	100
CN=C(NCc1ccc(Cl)nc1)C(=Cc1cccs1)[N+](=O)[O-] [Compound 156]	–	89	–	90
CCN(Cc1ccc(Cl)nc1)C(=NC)C(=C(C)c1ccoc1)[N+](=O)[O-] [Compound 196]	–	100	–	100
CCN(Cc1ccc(Cl)nc1)C(=NC)C(=Cc1ccco1)[N+](=O)[O-] [Compound 179]	–	100	–	100
CN=C(C(=Cc1ccoc1)[N+](=O)[O-])N(C)Cc1ccc(Cl)nc1 [Compound 162]	–	100	–	100
